These compounds were tested against T1, GST-Xa-hAAK1 (Homo sapiens, UniProt Q2M2I8) (assay: AAK1 kinase assay). Conditions: ATP 22 μM, 3 hours at room temperature.
T1 construct: made in house
T1 sequence (Q2M2I8 whole entry): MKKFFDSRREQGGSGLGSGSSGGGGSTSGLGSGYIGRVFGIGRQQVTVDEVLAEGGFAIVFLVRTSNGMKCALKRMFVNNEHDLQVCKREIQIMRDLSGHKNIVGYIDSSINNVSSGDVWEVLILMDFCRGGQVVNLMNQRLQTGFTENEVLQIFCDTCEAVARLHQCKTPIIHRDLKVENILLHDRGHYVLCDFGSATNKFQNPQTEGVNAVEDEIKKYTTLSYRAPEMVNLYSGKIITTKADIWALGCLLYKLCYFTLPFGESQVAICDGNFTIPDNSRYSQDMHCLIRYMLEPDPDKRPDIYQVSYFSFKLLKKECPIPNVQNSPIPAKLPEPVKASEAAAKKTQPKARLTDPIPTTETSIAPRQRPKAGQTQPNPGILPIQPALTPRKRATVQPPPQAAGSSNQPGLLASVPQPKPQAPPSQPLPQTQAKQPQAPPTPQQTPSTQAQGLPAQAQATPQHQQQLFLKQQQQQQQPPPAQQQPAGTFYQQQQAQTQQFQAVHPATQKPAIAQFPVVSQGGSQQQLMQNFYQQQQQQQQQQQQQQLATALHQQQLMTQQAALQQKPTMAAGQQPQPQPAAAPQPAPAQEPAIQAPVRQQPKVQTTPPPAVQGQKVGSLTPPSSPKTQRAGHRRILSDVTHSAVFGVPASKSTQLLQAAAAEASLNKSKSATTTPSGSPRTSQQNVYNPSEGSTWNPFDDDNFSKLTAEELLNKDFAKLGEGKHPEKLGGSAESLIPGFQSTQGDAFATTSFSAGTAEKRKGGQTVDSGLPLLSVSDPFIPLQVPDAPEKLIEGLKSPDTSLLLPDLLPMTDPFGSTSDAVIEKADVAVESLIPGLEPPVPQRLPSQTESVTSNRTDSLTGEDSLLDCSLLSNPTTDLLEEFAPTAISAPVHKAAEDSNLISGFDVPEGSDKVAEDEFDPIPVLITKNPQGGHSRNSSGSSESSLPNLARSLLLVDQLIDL
Format: biochemical
Description: The assays were performed in U-bottom 384-well plates. […] The reactions were initiated by the combination of bacterially expressed, GST-Xa-hAAK1 with substrates and test compounds. The reactions were incubated at room temperature for 3 hours and terminated by adding 60 μl of 35 mM EDTA buffer to each sample. The reactions were analyzed on the Caliper LabChip 3000 (Caliper, Hopkinton, Mass.) by electrophoretic separation of the fluorescent substrate and phosphorylated product. […] Compounds were dissolved at 10 mM in dimethylsulfoxide (DMSO) and evaluated at eleven concentrations. IC50 values were derived by non-linear regression analysis.
With `Cc1nccc2c1c(=O)n(C)c1cc(OC[C@@H](N)CC3CCC3)ccc21` [Example 22, (S)-8-(2-amino-3-cyclobutylpropoxy)-4,6-dimethylbenzo[c][2,7]naphthyridin-5(6H)-one] the IC50 was 12 nM. `CC(C)C[C@H](N)COc1ccc2c3ccncc3c(=O)n(CC(F)(F)F)c2c1` [Example 45, (S)-8-(2-amino-4-methylpentyloxy)-6-(2,2,2-trifluoroethyl)benzo[c][2,7]naphthyridin-5(6H)-one] showed an IC50 of 29 nM. `Cc1nccc2c1c(=O)n(C)c1c(Cl)c(OC[C@@H](N)CC(C)C)ccc21` [Example 61, (S)-8-((2-amino-4-methylpentyl)oxy)-7-chloro-4,6-dimethylbenzo[c][2,7]naphthyridin-5(6H)-one] was tested, and the IC50 was 126 nM. `Cc1nccc2c1c(=O)n(C)c1cc(OC[C@H](CC(C)C)N(C)C)ccc21` [Example 40, (S)-8-((2-(dimethylamino)-4-methylpentyl)oxy)-4,6-dimethylbenzo[c][2,7]naphthyridin-5(6H)-one] showed an IC50 of 123 nM. Work on `CC(C)C[C@H](N)COc1ccc2c3ccncc3c(=O)n(Cc3ccccc3)c2c1` [Example 11, (S)-8-((2-amino-4-methylpentyl)oxy)-6-benzylbenzo[c][2,7]naphthyridin-5(6H)-one] yielded an IC50 of 73 nM. With `COc1cc2c3ccnc(C)c3c(=O)n(C)c2cc1OCC(C)(N)CC(C)C` (stereo not shown) [Example 34, 8-((2-amino-2,4-dimethylpentyl)oxy)-9-methoxy-4,6-dimethylbenzo[c][2,7]naphthyridin-5(6H)-one] the IC50 was 5.9 nM. `Cc1nccc2c1c(=O)n(C)c1cc(OC[C@@H](N)CC(C)C)c(C(C)(C)O)cc21` [Example 35, (S)-8-((2-amino-4-methylpentyl)oxy)-9-(2-hydroxypropan-2-yl)-4,6-dimethylbenzo[c][2,7]naphthyridin-5(6H)-one] was tested, and the IC50 was 114 nM. `CC(C)C[C@H](N)COc1cc2c(cc1O)c1ccncc1c(=O)n2C` [Example 7, (S)-8-(2-amino-4-methylpentyloxy)-9-hydroxy-6-methylbenzo[c][2,7]naphthyridin-5(6H)-one] was tested, and the IC50 was 11 nM. `Cn1c(=O)c2cnccc2c2ccc(OCC3CCCCN3)cc21` (stereo not shown) [Example 57, 6-methyl-8-(piperidin-2-ylmethoxy)benzo[c][2,7]naphthyridin-5(6H)-one] gave an IC50 of 229 nM. With `COCCn1c(=O)c2c(C)nccc2c2ccc(OC[C@@H](N)CC(C)C)cc21` [Example 80, (S)-8-((2-amino-4-methylpentyl)oxy)-6-(2-methoxyethyl)-4-methylbenzo[c][2,7]naphthyridin-5(6H)-one] the IC50 was 134 nM. `CC(C)OC[C@H](N)COc1ccc2c3ccncc3c(=O)n(C)c2c1` [Example 53, (S)-8-(2-amino-3-isopropoxypropoxy)-6-methylbenzo[c][2,7]naphthyridin-5(6H)-one] was tested, and the IC50 was 119 nM. `CCc1cc2c3ccnc(C)c3c(=O)n(C)c2cc1OC[C@@H](N)CC(C)C` [Example 36, (S)-8-((2-amino-4-methylpentyl)oxy)-9-ethyl-4,6-dimethylbenzo[c][2,7]naphthyridin-5(6H)-one] showed an IC50 of 0.35 nM. With `CC(C)C[C@H](N)COc1ccc2c3ccncc3c(=O)n(CCO)c2c1` [Example 44, (S)-8-(2-amino-4-methylpentyloxy)-6-(2-hydroxyethyl)benzo[c][2,7]naphthyridin-5(6H)-one] the IC50 was 41 nM. `Cc1cc2c(cn1)c(=O)n(C)c1cc(OC[C@@H](N)CC(C)C)ccc21` [Example 67, (S)-8-((2-amino-4-methylpentyl)oxy)-2,6 dimethylbenzo[c][2,7]naphthyridin-5(6H)-one] was tested, and the IC50 was 893 nM. Work on `Cc1nccc2c1c(=O)n(C)c1cc(OC[C@@H](N)CC3CC3)ccc21` [Example 21, (S)-8-(2-amino-3-cyclopropylpropoxy)-4,6-dimethylbenzo[c][2,7]naphthyridin-5(6H)-one] yielded an IC50 of 23 nM. `Cc1nccc2c1c(=O)[nH]c1c(F)c(OC[C@@H](N)CC(C)C)ccc12` [Example 82, (S)-8-(2-amino-4-methylpentyloxy)-7-fluoro-4-methylbenzo[c][2,7]naphthyridin-5(6H)-one] was tested, and the IC50 was 150 nM. Work on `CC(C)CC(C)(N)COc1ccc2c3ccncc3c(=O)n(C)c2c1` (stereo not shown) [Example 28, 8-((2-amino-2,4-dimethylpentyl)oxy)-6-methylbenzo[c][2,7]naphthyridin-5(6H)-one] yielded an IC50 of 1.1 nM. With `Cc1nccc2c1c(=O)n(C)c1cc(OC[C@@](C)(N)CC(C)C)ccc21` (single isomer, unassigned) [Example 38] the IC50 was 13 nM. For `COc1ccc(CNc2nccc3c2c(=O)n(C)c2cc(OC[C@@H](N)CC(C)C)ccc32)cc1` [Example 50, (S)-8-((2-amino-4-methylpentyl)oxy)-4-((4-methoxybenzyl)amino)-6-methylbenzo[c][2,7]naphthyridin-5(6H)-one], the IC50 was 33 nM.

Same assay, conditions: given as IC50 range; ATP 22 μM, 3 hours at room temperature
`Cc1nccc2c1c(=O)n(C)c1cc(OC[C@@H](N)CC(C)C)c(-n3cccn3)cc21` [Example 74] was tested, and the IC50 was 1 to 10 nM. `CC(C)C[C@H](N)COc1ccc2c3ccnc(C(F)F)c3c(=O)n(C)c2c1` [Example 60, (S)-8-(2-amino-4-methylpentyloxy)-4-(difluoromethyl)-6-methylbenzo[c][2,7]naphthyridin-5(6H)-one] showed an IC50 of 100 to 2000 nM. `Cc1nccc2c1c(=O)n(C)c1cc(OC[C@@H](N)CC(C)C)c(OC(F)F)cc21` [Example 90, (S)-8-((2-amino-4-methylpentyl)oxy)-9-(difluoromethoxy)-4,6-dimethylbenzo[c][2,7]naphthyridin-5(6H)-one] showed an IC50 of 10 to 100 nM. In the case of `COc1cc2c3ccnc(C)c3c(=O)n(C)c2cc1OC[C@@H](N)CC(C)C` [Example 89, (S)-8-((2-amino-4-methylpentyl)oxy)-9-methoxy-4,6-dimethylbenzo[c][2,7]naphthyridin-5(6H)-one], the IC50 is reported as 1 to 10 nM. In the case of `CC(=O)Nc1cc2c(cn1)c(=O)n(C)c1cc(OC[C@@H](N)CC(C)C)ccc21` [Example 18, (S)—N-(8-(2-amino-4-methylpentyloxy)-6-methyl-5-oxo-5,6-dihydrobenzo[c][2,7]naphthyridin-2-yl)acetamide], the IC50 is reported as 100 to 2000 nM. `Cn1c(=O)c2cnccc2c2ccc(OC[C@@H](N)CC(C)(F)F)cc21` [Example 55, (S)-8-((2-amino-4,4-difluoropentyl)oxy)-6-methylbenzo[c][2,7]naphthyridin-5(6H)-one] was tested, and the IC50 was 10 to 100 nM. `CC(C)C[C@H](N)COc1ccc2c3ccncc3c(=O)n(CC3CC3)c2c1` [Example 13, (S)-8-((2-amino-4-methylpentyl)oxy)-6-(cyclopropylmethyl)benzo[c][2,7]naphthyridin-5(6H)-one] gave an IC50 of 10 to 100 nM. `Cc1nccc2c1c(=O)n(C)c1cc(OC[C@@H](N)CC(C)C)c(S(C)(=O)=O)cc21` [Example 76, (S)-8-(2-amino-4-methylpentyloxy)-4,6-dimethyl-9-(methylsulfonyl)benzo[c][2,7]naphthyridin-5(6H)-one] was tested, and the IC50 was 100 to 2000 nM. `Cc1nccc2c1c(=O)n(C)c1cc(OC[C@@H](N)CC(C)C(F)(F)F)ccc21` (single isomer, unassigned) [Example 87] was tested, and the IC50 was 1 to 10 nM. Compound `Cc1nccc2c1c(=O)n(C)c1cc(OCC(N)CC(F)(F)F)ccc21` (single isomer, unassigned) [Example 91] has an IC50 of 10 to 100 nM. `Cc1nccc2c1c(=O)[nH]c1c(F)c(OCC(C)(N)CC(C)C)ccc12` (stereo not shown) [Example 105, 8-(2-amino-2,4-dimethylpentyloxy)-7-fluoro-4-methylbenzo[c][2,7]naphthyridin-5(6H)-one] gave an IC50 of 10 to 100 nM. `CN[C@H](COc1ccc2c3ccnc(C)c3c(=O)n(C)c2c1)CC(C)C` [Example 95, (S)-4,6-dimethyl-8-(4-methyl-2-(methylamino)pentyloxy)benzo[c][2,7]naphthyridin-5(6H)-one] was tested, and the IC50 was 10 to 100 nM. For `Cn1c(=O)c2cnccc2c2ccc(OCC(N)CC(F)(F)F)cc21` (stereo not shown) [Example 93, 8-(2-amino-4,4,4-trifluorobutoxy)-6-methylbenzo[c][2,7]naphthyridin-5(6H)-one], the IC50 was 10 to 100 nM. Work on `Cc1nccc2c1c(=O)n(C)c1cc(OCC(N)CC(F)(F)F)ccc21` (single isomer, unassigned) [Example 92] yielded an IC50 of 1 to 10 nM. `CC(C)C[C@H](N)COc1ccc2c3ccncc3c(=O)n(C(C)C)c2c1` [Example 8, (S)-8-((2-amino-4-methylpentyl)oxy)-6-isopropylbenzo[c][2,7]naphthyridin-5(6H)-one] showed an IC50 of 10 to 100 nM. For `Cc1nccc2c1c(=O)n(C)c1cc(OC[C@@H](N)CC(C)C)c(C(C)O)cc21` (single isomer, unassigned) [Example 31], the IC50 was 10 to 100 nM. `Cc1nccc2c1c(=O)n(C)c1cc(OC[C@@H](N)CC(C)C)c(CO)cc21` [Example 71, (S)-8-(2-amino-4-methylpentyloxy)-9-(hydroxymethyl)-4,6-dimethylbenzo[c][2,7]naphthyridin-5(6H)-one] was tested, and the IC50 was 1 to 10 nM. With `Cc1nccc2c1c(=O)n(C)c1cc(OC[C@@H](N)CC(C)C)c(C(=O)N(C)C)cc21` [Example 96, (S)-8-((2-amino-4-methylpentyl)oxy)-N,N,4,6-tetramethyl-5-oxo-5,6-dihydrobenzo[c][2,7]naphthyridine-9-carboxamide] the IC50 was 100 to 2000 nM. For `Cc1nccc2c1c(=O)[nH]c1cc(OCC(C)(N)CC(C)C)c(F)cc12` (stereo not shown) [Example 102, 8-(2-amino-2,4-dimethylpentyloxy)-9-fluoro-4-methylbenzo[c][2,7]naphthyridin-5(6H)-one], the IC50 was 1 to 10 nM. Work on `Cc1nccc2c1c(=O)[nH]c1c(F)c(OC[C@@H](N)CC(C)C)c(Br)cc12` [Example 100, (S)-8-(2-amino-4-methylpentyloxy)-9-bromo-7-fluoro-4-methylbenzo[c][2,7]naphthyridin-5(6H)-one] yielded an IC50 of 1 to 10 nM. `COC[C@H](N)COc1ccc2c3ccncc3c(=O)n(C)c2c1` [Example 69, (S)-8-(2-amino-3-methoxypropoxy)-6-methylbenzo[c][2,7]naphthyridin-5(6H)-one] gave an IC50 of 10 to 100 nM.

— patent publication US8901305B2, “Aryl lactam kinase inhibitors” (Bristol-Myers Squibb Company, priority 2012, dated 2014)
